≈ marks a conversion by molar mass, not a printed value. Where two headings read alike, the source gives them in different places.
Key:
[1] = test system: CLP-induced polymicrobial sepsis in C57BL/6 female mice; assay: CLP-induced polymicrobial sepsis model; type: in vivo
Experimental: (i) CLP surgery. Cecal ligation and puncture surgery was performed to induce polymicrobial sepsis according to a previously described method ([37]). Female C57BL/6 mice at 6 to 8 weeks of age (weight = 18 to 22 g) were anesthetized by intraperitoneal administration of Zoletil (50 mg/kg). Then, a 1-cm incision was made at the abdomen to expose the cecum. The CLP procedure was performed with a 23-G needle. […] A sham group was subjected to abdomen incision without CLP and treated with saline by intraperitoneal injection. After the treatments, percent survival was used as a measure of test-candidate efficacy ([37]).
(ii) Estimation of bacterial load, cytokine expression, and toxicity profile after CLP and treatment. […] Blood samples were taken in collection tubes. Peritoneal fluid was collected in a sterilized 1.5-mL centrifuge tube. Organs, including the liver, lung, spleen, and kidney, were harvested, weighed, and placed in 1-mL sterile PBS for homogenization with a tissue lyzer (Tissuelyzer II, Qiagen, Dusseldorf, Germany). The homogenates, blood, and peritoneal fluid were diluted serially and plated on Mueller-Hinton broth agar plates. The plates were incubated at 37°C overnight. Each tissue was evaluated by measuring CFU/g ([37]).
To evaluate kidney and liver function, blood samples (n = 5 per group) were tested for ALT (GPT), AST (GOT), CRE, and BUN using a dry-chemistry analyzer as described above. Mouse serum was extracted to assess (n = 5 per group) expression of cytokines (Thermo Fisher Scientific, Waltham, MA) as a measure of inflammatory response ([37]).

NDM1 K. pneumoniae = assay: microbe, parasite or virus in culture; type: cell-based, Klebsiella pneumoniae
MDR A. baumannii 921 = assay: microbe, parasite or virus in culture; type: cell-based, Acinetobacter baumannii
Experimental: (§1) The FICI was measured using a standard checkerboard microdilution assay ([57]). Two-fold dilutions of antibiotics were made across the x axis, and two-fold peptide dilutions were made across the y axis. Next, bacteria were added at 5 × 10^5 CFU/well (A. baumannii), followed by incubation at 37 ± 2°C for 16 to 20 h. FIC indices were calculated according to the following equations: FICI = FIC1 + FIC2; FIC1 = (MIC12 combined)/MIC1; FIC2 = (MIC12 combined)/MIC2. The combined efficacy was estimated as follows: FICI ≤ 0.5, synergistic; 0.5 to 1, additive; 1 to 2, indifferent; ≥2, antagonistic.

MDR A. baumannii 2962 = assay: microbe, parasite or virus in culture; type: cell-based, Acinetobacter baumannii
Experimental: as §1

MDR A. baumannii 1702 = assay: microbe, parasite or virus in culture; type: cell-based, Acinetobacter baumannii
Experimental: as §1

MDR A. baumannii 1019 = assay: microbe, parasite or virus in culture; type: cell-based, Acinetobacter baumannii
Experimental: as §1

MDR A. baumannii 1607 = assay: microbe, parasite or virus in culture; type: cell-based, Acinetobacter baumannii
Experimental: as §1

MDR A. baumannii 2982 = assay: microbe, parasite or virus in culture; type: cell-based, Acinetobacter baumannii
Experimental: as §1

MDR A. baumannii 14B001 = assay: microbe, parasite or virus in culture; type: cell-based, Acinetobacter baumannii
Experimental: as §1

E. aerogenes = assay: microbe, parasite or virus in culture; type: cell-based, Enterobacter aerogenes
P. aeruginosae = assay: microbe, parasite or virus in culture; type: cell-based, Pseudomonas aeruginosa
Acinetobacter baumannii = assay: microbe, parasite or virus in culture; type: cell-based; settings: for MBC / MIC: Acinetobacter baumannii; for MBC: read-out: MBC; for MIC: read-out: MIC
Experimental: The antimicrobial assay was performed according to a modified National Committee for Clinical Laboratory Standards (NCCLS) protocol ([41], [42]). Briefly, 5 × 10^5 CFU/mL bacterial cells were treated with various peptide concentrations and incubated at 37 ± 2°C for 16 to 20 h. The lowest concentration with clear wells was recorded as the MIC for each test molecule. The clear wells were further plated in Mueller-Hinton agar (MHA) plates, followed by incubation overnight at 37 ± 2°C. After plating, the lowest concentration at which no growth was observed was recorded as the MBC. For the serum sensitivity assay, the antimicrobial activity of the peptides was tested in medium containing 50% human serum ([43], [44]). The antimicrobial assay was performed in the presence of physiological ions and glucose. The test media were supplemented with MgCl2 (1 mM), CaCl2 (2 mM), NaCl (150 mM), KCl (4.5 mM), NH4Cl (6 μM) ([45], [46]), or glucose (0.2%) ([47]), followed by routine antimicrobial assay as described previously. For the pH sensitivity assay, the antimicrobial assay was performed in media adjusted to pH values ranging from 4 to 12. To estimate the effects of temperature on antimicrobial activity, the peptide was incubated for 1 h at temperatures ranging from 40 to 100°C ([48]), followed by the antimicrobial assay as described above.

[2] = MIC of each agent in combination, TP4-3 and M
[3] = Acinetobacter baumannii, read-out: Single drug treatment MIC
[4] = 1 h, agent pre-exposed to 40°C for 1 h
[5] = 1 h, agent pre-exposed to 60°C for 1 h
[6] = 1 h, agent pre-exposed to 80°C for 1 h
[7] = preincubation in 50% human serum 2 h
[8] = preincubation in 50% human serum 6 h
[9] = preincubation in 50% human serum 12 h
[10] = preincubation in 50% human serum 24 h

C[C@@H](O)[C@H]1C(=O)N2C(C(=O)O)=C(S[C@@H]3CN[C@H](C(=O)N(C)C)C3)[C@H](C)[C@H]12 [Meropenem]
kidney (BUN, CRE) and liver function (GOT, GPT) ([1]; 24 h after CLP): poor liver function profiles | survival ([1]; 7 days post-operation, i.p. 30 min after CLP, TP4-3 9 mg/kg, meropenem 10 mg/kg, combination 9 mg/kg TP4-3 and 5 mg/kg meropenem, CLP + saline 12.5%): 37.5% | MIC (NDM1 K. pneumoniae; Klebsiella pneumoniae, read-out: Single drug treatment MIC): 400 µM (≈ 153 µg/mL) | TP4-3 and meropenem combined MIC (NDM1 K. pneumoniae; [2]): 200 µM | MIC (MDR A. baumannii 921; [3]): 400 µM | TP4-3 and meropenem combined MIC (MDR A. baumannii 921; [2]): 100 µM | MIC (MDR A. baumannii 2962; [3]): 100 µM | TP4-3 and meropenem combined MIC (MDR A. baumannii 2962; [2]): 25 µM | MIC (MDR A. baumannii 1702; [3]): 25 to 50 µM | TP4-3 and meropenem combined MIC (MDR A. baumannii 1702; [2]): 12.5 µM | MIC (MDR A. baumannii 1019; [3]): 50 µM | TP4-3 and meropenem combined MIC (MDR A. baumannii 1019; [2]): 6.25 µM | MIC (MDR A. baumannii 1607; [3]): 100 µM | TP4-3 and meropenem combined MIC (MDR A. baumannii 1607; [2]): 12.5 µM | MIC (MDR A. baumannii 2982; [3]): 400 µM | TP4-3 and meropenem combined MIC (MDR A. baumannii 2982; [2]): 200 µM | MIC (MDR A. baumannii 14B001; [3]): 800 µM | TP4-3 and meropenem combined MIC (MDR A. baumannii 14B001; [2]): 400 µM | MIC (E. aerogenes; Klebsiella aerogenes, read-out: Single drug treatment MIC): 0.39 µM (≈ 0.15 µg/mL) | TP4-3 and meropenem combined MIC (E. aerogenes; [2]): 0.097 µM | TP4-3 and meropenem combined MIC (P. aeruginosae; [2]): 0.78 µM | MIC (P. aeruginosae; Pseudomonas aeruginosa, read-out: Single drug treatment MIC): 0.39 µM (≈ 0.15 µg/mL) | reduction of activity (Acinetobacter baumannii; 24 h pre-incubation in 50% human serum): 2 fold | MBC (Acinetobacter baumannii; [4]): 6.25 µM (≈ 2.4 µg/mL) | MIC (Acinetobacter baumannii; [4]): 6.25 µM (≈ 2.4 µg/mL) | MBC (Acinetobacter baumannii; [5]): 6.25 µM (≈ 2.4 µg/mL) | MIC (Acinetobacter baumannii; [5]): 6.25 µM (≈ 2.4 µg/mL) | MBC (Acinetobacter baumannii; [6]): 12.5 µM (≈ 4.79 µg/mL) | MIC (Acinetobacter baumannii; [6]): 12.5 µM (≈ 4.79 µg/mL) | MBC (Acinetobacter baumannii; 1 h, agent pre-exposed to 100°C for 1 h): > 25 µM | MBC (Acinetobacter baumannii; [7]): 6.25 to 12.5 µM (≈ 2.4 to 4.79 µg/mL) | MIC (Acinetobacter baumannii; [7]): 6.25 µM (≈ 2.4 µg/mL) | MBC (Acinetobacter baumannii; [8]): 6.25 to 12.5 µM (≈ 2.4 to 4.79 µg/mL) | MIC (Acinetobacter baumannii; [8]): 6.25 µM (≈ 2.4 µg/mL) | MBC (Acinetobacter baumannii; [9]): 12.5 µM (≈ 4.79 µg/mL) | MIC (Acinetobacter baumannii; [9]): 6.25 µM (≈ 2.4 µg/mL) | MBC (Acinetobacter baumannii; [10]): 25 µM (≈ 9.59 µg/mL) | MIC (Acinetobacter baumannii; [10]): 12.5 µM (≈ 4.79 µg/mL) | MIC (Acinetobacter baumannii; agent pre-exposed to 100°C for 1 h): > 25 µM
